Results reported in ChEMBL document CHEMBL1201862, “PubChem BioAssay data set” (2004).
Activity calls are given as the source filed them.

Legend:
[1] = biological target: T1, Tyrosine-protein phosphatase non-receptor type 7 (Homo sapiens, UniProt P35236); assay type: functional
T1 sequence (P35236 whole entry): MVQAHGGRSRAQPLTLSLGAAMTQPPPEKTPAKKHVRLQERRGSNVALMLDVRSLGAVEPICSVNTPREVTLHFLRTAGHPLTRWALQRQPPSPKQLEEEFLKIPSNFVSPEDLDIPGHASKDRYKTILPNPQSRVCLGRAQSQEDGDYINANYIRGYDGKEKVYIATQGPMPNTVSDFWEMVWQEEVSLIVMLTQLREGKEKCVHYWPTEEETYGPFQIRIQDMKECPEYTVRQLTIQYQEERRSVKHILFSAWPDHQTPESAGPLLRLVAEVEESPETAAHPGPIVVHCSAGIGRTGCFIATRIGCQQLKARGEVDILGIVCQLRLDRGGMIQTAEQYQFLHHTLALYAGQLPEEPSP

[2] = biological target: T2, Tyrosine-protein phosphatase non-receptor type 22 (Homo sapiens, UniProt Q9Y2R2); assay type: functional
T2 sequence (Q9Y2R2 whole entry): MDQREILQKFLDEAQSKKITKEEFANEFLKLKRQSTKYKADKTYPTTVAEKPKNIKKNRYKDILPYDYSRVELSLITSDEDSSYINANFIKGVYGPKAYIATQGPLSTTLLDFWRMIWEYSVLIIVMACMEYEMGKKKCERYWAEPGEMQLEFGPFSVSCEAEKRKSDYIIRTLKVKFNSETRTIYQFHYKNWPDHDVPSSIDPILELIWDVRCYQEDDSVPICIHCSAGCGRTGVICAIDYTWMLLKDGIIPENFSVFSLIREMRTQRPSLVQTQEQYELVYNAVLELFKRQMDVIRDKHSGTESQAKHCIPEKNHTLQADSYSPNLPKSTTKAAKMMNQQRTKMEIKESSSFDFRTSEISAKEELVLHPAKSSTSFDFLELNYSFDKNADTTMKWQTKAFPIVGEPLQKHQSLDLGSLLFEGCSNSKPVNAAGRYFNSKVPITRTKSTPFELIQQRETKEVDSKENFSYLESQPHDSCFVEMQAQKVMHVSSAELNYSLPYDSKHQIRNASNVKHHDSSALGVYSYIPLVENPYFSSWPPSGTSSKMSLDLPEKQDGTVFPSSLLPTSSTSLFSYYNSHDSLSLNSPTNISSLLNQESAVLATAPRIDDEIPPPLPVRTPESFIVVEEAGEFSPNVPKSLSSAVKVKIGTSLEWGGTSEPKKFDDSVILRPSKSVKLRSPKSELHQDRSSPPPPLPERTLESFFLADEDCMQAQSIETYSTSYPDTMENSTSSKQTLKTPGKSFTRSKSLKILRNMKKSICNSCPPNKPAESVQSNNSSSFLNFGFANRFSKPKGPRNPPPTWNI

[3] = biological target: T2, Tyrosine-protein phosphatase non-receptor type 22; assay type: functional; remark: listed apart in the source
[4] = biological target: T3, E3 ubiquitin-protein ligase XIAP (Homo sapiens, UniProt P98170); experiment: small molecules displacing peptide from XIAP – biochemical, IAP family, fluorescence polarization (AID 1018); assay type: functional
[5] = biological target: T3, E3 ubiquitin-protein ligase XIAP; experiment: Counter Screen using XIAP-Bir3 for Chemical Antagonists of Bir1/2 domains of IAP-family anti-apoptotic proteins. [Related pubchem assays (depositor defined):AID1018, AID1449, AID1514, AID1638, AID1749, AID1750, AID488957, AID488963]
[6] = viability loss of HPDE-C7K cells – cell-based, fluorescence, HTS, primary screen (AID 431); assay type: functional; settings: Homo sapiens
[7] = HPDE-C7 pancreatic duct cell viability loss – fluorescence, HTS (AID 430); assay type: functional, cell-based; settings: Homo sapiens
[8] = biological target: T4, Short transient receptor potential channel 4 (Mus musculus, UniProt Q9QUQ5); experiment: calcium entry via TRPC4 opening agents – cell-based, HEK293 TRPC4/mu-opioid, Fluo-4 calcium, dose response (AID 434937); assay type: functional
T4 sequence (Q9QUQ5 whole entry): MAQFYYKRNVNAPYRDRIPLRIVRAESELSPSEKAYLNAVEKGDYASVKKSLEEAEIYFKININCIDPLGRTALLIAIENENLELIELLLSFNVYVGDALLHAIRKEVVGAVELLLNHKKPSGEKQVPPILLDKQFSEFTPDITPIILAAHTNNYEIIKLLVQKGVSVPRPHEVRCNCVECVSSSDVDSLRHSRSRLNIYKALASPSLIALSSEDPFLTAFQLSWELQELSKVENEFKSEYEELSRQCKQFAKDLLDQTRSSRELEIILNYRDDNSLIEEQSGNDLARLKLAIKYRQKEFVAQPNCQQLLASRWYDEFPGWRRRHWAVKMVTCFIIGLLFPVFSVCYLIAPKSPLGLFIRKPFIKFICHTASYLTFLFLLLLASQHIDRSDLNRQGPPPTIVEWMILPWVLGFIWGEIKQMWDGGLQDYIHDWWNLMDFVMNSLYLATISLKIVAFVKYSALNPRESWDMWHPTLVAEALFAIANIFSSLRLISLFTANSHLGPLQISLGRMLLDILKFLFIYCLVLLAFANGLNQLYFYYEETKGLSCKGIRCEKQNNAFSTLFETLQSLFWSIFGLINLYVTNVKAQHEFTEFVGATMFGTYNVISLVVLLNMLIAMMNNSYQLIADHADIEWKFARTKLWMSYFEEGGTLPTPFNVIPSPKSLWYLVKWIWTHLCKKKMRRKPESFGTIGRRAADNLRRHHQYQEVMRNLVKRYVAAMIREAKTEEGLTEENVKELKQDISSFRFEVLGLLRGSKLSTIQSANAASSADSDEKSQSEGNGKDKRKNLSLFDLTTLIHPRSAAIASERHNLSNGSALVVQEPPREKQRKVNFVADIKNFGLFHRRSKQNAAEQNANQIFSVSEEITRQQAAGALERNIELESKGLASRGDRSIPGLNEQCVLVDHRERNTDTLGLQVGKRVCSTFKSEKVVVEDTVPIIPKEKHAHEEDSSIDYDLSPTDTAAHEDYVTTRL

[9] = Vero E6 cell cytotoxicity, dose response, cytotoxicity control for non-replicating M. tuberculosis project, secondary assay (AID 492998); assay type: functional, VeroE6; settings: Vero C1008
[10] = THP-1 cell cytotoxicity, dose response, cytotoxicity control for non-replicating M. tuberculosis project (AID 489025); assay type: functional
cells = assay type: functional
[11] = viability of PTEN-deleted HCT116 cells – cell-based, HCT116 PTEN knockout, dose response (AID 1047); assay type: functional;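 further: HCT116 colon tumor cells with PTEN knocked out; cells exposed to compound for 60 hours before readout; potency for loss of cell viability measured by luminescence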
[12] = reduction of Shn3 3'UTR-driven luciferase in osteoblasts – cell-based, Clone20 osteoblasts, firefly luciferase, cherry-picked, dose response (AID 624132); assay type: functional;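 further: firefly luciferase luminescence from reporter carrying the Shn3 3'UTR in osteoblasts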
[13] = non-specific 3'UTR reporter inhibition in Clone20-Shn3RL – cell-based, Renilla luciferase, cherry-picked, counter-screen for Shn3 inhibitor project, dose response (AID 624133); assay type: functional
Protein RecA = biological target: T5, Protein RecA (Mycobacterium tuberculosis, UniProt P9WHJ3); experiment: Fluorescence Cell-Free Homogeneous Dose Retest to Identify Inhibitors of RecA-Intein Splicing Activity. [Related pubchem assays (depositor defined):AID2097, AID2223, AID489010, AID492950]; assay type: functional
T5 sequence (P9WHJ3 whole entry): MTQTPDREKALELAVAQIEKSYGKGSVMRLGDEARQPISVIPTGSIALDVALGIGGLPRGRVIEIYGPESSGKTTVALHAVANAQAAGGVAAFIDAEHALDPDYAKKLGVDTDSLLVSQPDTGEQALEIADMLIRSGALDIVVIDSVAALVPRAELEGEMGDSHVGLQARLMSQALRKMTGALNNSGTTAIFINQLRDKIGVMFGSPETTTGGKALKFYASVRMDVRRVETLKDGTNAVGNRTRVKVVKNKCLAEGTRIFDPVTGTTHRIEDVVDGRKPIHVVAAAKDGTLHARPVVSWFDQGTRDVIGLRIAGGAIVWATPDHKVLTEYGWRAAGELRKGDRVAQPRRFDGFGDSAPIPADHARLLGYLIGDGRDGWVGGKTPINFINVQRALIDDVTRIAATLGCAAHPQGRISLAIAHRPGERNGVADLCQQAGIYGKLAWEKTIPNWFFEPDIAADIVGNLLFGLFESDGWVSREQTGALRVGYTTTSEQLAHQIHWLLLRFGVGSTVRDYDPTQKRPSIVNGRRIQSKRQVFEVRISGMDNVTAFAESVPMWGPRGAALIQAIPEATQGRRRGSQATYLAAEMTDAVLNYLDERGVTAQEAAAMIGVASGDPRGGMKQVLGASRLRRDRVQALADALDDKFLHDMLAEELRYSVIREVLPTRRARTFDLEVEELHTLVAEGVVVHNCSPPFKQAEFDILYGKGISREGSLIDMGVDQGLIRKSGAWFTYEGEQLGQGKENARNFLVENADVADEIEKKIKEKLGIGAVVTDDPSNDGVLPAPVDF

[14] = Fluorescence-based cell-based high throughput dose response assay for inhibitors of the interaction of nucleotide-binding oligomerization domain containing 2 (NOD2) and the receptor-interacting serine-threonine kinase 2 (RIPK2).; assay type: functional; settings: Homo sapiens
[15] = biological target: T6, Replicative DNA helicase DnaB (Mycobacterium tuberculosis, UniProt P9WMR3); experiment: DnaB intein splicing inhibitors, dose response, biochemical, cell-free fluorescence (AID 449749); assay type: functional
T6 sequence (P9WMR3 whole entry): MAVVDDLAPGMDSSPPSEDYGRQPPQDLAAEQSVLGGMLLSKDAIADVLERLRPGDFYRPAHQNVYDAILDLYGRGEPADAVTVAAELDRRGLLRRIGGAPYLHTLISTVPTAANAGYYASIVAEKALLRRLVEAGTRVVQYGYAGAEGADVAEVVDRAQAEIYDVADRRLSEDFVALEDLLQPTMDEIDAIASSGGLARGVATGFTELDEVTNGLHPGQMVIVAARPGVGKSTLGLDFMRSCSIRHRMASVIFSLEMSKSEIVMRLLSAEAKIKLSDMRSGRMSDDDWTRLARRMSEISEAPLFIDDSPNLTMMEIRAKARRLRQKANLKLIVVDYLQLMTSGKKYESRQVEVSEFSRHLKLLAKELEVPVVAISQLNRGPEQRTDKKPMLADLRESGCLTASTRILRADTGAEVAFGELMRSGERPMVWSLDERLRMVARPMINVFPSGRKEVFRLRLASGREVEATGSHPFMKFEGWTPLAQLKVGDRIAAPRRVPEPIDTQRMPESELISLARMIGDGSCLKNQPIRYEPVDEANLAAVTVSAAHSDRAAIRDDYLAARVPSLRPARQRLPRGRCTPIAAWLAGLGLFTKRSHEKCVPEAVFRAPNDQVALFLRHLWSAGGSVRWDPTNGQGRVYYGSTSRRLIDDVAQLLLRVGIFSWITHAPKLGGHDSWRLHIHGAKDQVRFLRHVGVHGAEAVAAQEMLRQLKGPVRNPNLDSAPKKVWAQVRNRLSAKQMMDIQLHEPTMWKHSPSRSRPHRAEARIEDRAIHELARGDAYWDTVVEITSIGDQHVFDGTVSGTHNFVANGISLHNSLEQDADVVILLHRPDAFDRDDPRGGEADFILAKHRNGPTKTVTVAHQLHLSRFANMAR

[16] = loss of viability in HepG2 cells – cell-based, CellTiter-Glo, cherry-picked, cytotoxicity control for Shn3 inhibitor project, dose response (AID 624134); assay type: functional
[17] = biological target: G-protein coupled receptor 55 (Homo sapiens, UniProt Q9Y2T6); experiment: selective activators of receptor GPR55 – imaging, U2OS cells, beta-arrestin-GFP redistribution, primary screen (AID 1961); assay type: functional
[18] = viability of HCT116 lacking mutant beta-catenin – cell-based, human colon tumor, dose response (AID 1045); assay type: functional;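 further: HCT116 colon tumor cells with beta catenin knocked out; cells exposed to compound for 60 hours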
INS1 = experiment: INS-1E survival protection against cytokine death – cell-based, luminescence, retest, dose response (AID 449756); assay type: functional; settings: Rattus norvegicus;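 further: cell death triggered by IL-1 beta plus TNF-alpha plus IFN-gamma mixture; protective hits raise ATP signal compared with cytokine alone wells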
[19] = reduced cellular PGC1a acetyl-lysine signal – cell-based, cherry-picked samples, dose response (AID 720514); assay type: functional;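 further: potency may reflect raised or lowered acetylation signal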

T3 sequence (P98170 whole entry): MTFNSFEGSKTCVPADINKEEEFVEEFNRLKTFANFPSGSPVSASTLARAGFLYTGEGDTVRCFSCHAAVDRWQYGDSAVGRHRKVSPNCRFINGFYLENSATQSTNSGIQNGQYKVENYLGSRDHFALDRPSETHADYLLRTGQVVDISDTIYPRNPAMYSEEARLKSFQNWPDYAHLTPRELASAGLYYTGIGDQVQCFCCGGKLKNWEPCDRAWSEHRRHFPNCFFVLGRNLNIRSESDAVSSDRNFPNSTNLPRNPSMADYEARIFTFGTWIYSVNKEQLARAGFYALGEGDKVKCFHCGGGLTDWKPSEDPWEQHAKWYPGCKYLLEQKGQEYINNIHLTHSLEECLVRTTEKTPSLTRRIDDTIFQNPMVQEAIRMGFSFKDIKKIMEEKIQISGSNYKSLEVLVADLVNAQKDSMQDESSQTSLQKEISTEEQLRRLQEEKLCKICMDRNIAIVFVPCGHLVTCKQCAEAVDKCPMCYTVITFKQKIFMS
G-protein coupled receptor 55, sequence (Q9Y2T6 whole entry): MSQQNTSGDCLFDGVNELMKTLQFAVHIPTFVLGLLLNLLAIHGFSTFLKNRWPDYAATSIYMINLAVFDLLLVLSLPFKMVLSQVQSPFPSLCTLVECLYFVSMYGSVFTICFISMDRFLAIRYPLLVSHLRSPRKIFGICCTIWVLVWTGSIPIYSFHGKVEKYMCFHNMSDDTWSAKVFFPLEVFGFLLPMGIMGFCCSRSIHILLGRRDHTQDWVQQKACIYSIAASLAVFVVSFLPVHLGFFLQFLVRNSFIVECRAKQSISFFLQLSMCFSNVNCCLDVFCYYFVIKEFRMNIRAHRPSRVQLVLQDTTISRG

## CCn1cc(CNC(=O)c2cc([N+](=O)[O-])c(C)c([N+](=O)[O-])c2)cn1
[1]
  IC50: > 79.4 µM (inactive)
[2]
  IC50: > 79.4 µM (inactive)
[3]
  IC50: > 79.4 µM (inactive)

## Cn1c(SCC(=O)N2CCN(c3ccccc3)CC2)nnc1-c1cc2ccccc2o1
[1]
  IC50: > 79.4 µM (inactive)
[2]
  IC50: > 79.4 µM (inactive)
[3]
  IC50: > 79.4 µM (inactive)

## CCOc1ccc(C(=O)Nc2cccc(NC(=O)c3cccs3)c2)cc1[N+](=O)[O-]
[4]
  IC50: > 100 µM (not active)
[5]
  IC50: > 100 µM (inactive)

## Brc1ccc(C2Nc3cccc4cccc(c34)N2)o1
[1]
  IC50: > 79.4 µM (inactive)
[2]
  IC50: > 79.4 µM (inactive)
[3]
  IC50: > 79.4 µM (inactive)

## CC(C)(C)NC(=O)C(c1ccncc1)N(C(=O)Cn1nnc(-c2ccc(F)cc2)n1)c1ccccc1F (configuration not stated)
[4]
  IC50: > 100 µM (not active)
[5]
  IC50: > 100 µM (inactive)

## CN(C)C=C1C(=O)N(C2CCCCC2)C(=O)N(C2CCCCC2)C1=O
[6]
  EC50: 13.7 µM (active)
[7]
  EC50: 9.27 µM (active)
[8]
  EC50: 9.44 µM (active)
[9]
  CC50: > 20 µM (active)
[10]
  CC50: > 40 µM (active)
cells
  IC50: 11.2 µM (active)

## COC(=O)C1=C(C(=O)OC)N2C=CC=CC2(C)C(C(=O)OC)=C1C(=O)OC (configuration not stated)
[4]
  IC50: > 100 µM (not active)
[5]
  IC50: > 100 µM (inactive)

## O=C(NCc1cccnc1)/C(=C/c1ccc(-c2ccc(Cl)cc2)o1)S(=O)(=O)c1ccccc1
[11]
  EC50: 4.4 µM (active)
[12]
  AC50: 5.35 µM (active)
[13]
  AC50: 11.8 µM (active)
Protein RecA
  EC50: 27.3 µM (active)
[14]
  IC50: 6.4 µM (active)
[15]
  AC50: > 380 µM (inactive)
[16]
  AC50: 11.9 µM (active)
[17]
  EC50: > 32 µM (inactive)
[18]
  EC50: 4.08 µM (active)
INS1
  AC50: 6.51 µM (active)
[19]
  AC50: 6.04 µM (active)
